Source: publication PMC12683216, “Using High‐Throughput Screening to Identify Crosslinking Peptides That Control Cell‐Mediated Matrix Degradation” (Advanced Healthcare Materials, 2025)
Where a SMILES comes first, the peptide text is derived from it. [ ]: non-standard residue; d: D form. βAla = NCCC(=O)O

How the values were obtained:
Format in all cases: in vitro ADME, human
[1] = Soluble peptide degradation, Media condition (cell-conditioned media, LC-MS); settings: human, hUVEC-conditioned media without cells (Media condition); Figure 3B heatmap; split-and-pool libraries KLVADX1X2ASAE in hUVEC-conditioned media without cells; 24 h; LC-MS, ratio to βFβA6; N = 2; read-out: Fraction of peptide remaining after 24 hours: hUVEC Media
Experimental: (§1) Most in vitro protease activity assays incubate the peptides or proteins of interest with a single protease in a buffered solution. However, the kinetics of protease activity in tissues are complex and highly regulated, and both the activity^[ [37] ^] and substrate specificity^[ [38] ^] of proteases can be modulated through association with other proteins.^[ [39] ^] Most MMP‐substrate peptides are also cleaved by multiple proteases,^[ [5] ^] and within the context of biomaterials, the most important factor is typically how the combined activity of all proteases, rather than the activity of any specific protease, modifies the local microenvironment versus the activity due to any individual enzyme. We synthesized peptides identified in the TAILS proteomic screen that were present on proteins that are known to be secreted or found on the cell membrane, pooled them, and added them either to cell culture media on top of cells, the “Cells” condition, or conditioned media lacking cells, the “Media” condition (Figure 2A). The fraction of peptides remaining after 24 h in each condition was then quantified using LC‐MS. Soluble proteases should be present in both conditions, however, membrane‐type proteases should primarily be found in the samples containing cells and not the conditioned media samples. A key benefit of this approach is that it surveys the total functional proteolytic activity, including the effects of inhibitors and co‐factors, and quantifies the degradation rate of soluble peptides by the complete secretome of different cell types.
(§2) hUVECs (75000 per well) or hMSCs (36000 per well) were seeded into a 48 well plate, and 500 µL media was added to the wells. […] The peptide libraries were dissolved at a stock solution of 10 mM total peptide content. For libraries containing 38 peptides, 95 µL of the stock solution was added to each well; for libraries with 19 peptides, 47.5 µL was added to each well, and media was taken at 0 and 24 h. Add 4 µL of acetic acid to all collected media in the LC‐MS plates and store them in a −80 °C freezer to prevent further proteolytic degradation. From each sample, 10 µL of crude solution was introduced by the LC‐MS through a Thermo Scientific Vanquish LC System (Thermo Fisher Scientific), which outputted to a Thermo Scientific LTQ XL Linear Ion Trap Mass Spectrometer (Thermo Fisher Scientific). The sampled mixture was trapped on a column (ProntoSIL C18 AQ, 120 Å, 3 µm, 2.0 x 50 mm HPLC Column, PN 0502F184PS030, MAC‐MOD Analytical Inc.). The samples were loaded onto the column with a solvent containing acetonitrile/water, 5:95 (v/v) containing 1% acetic acid at a flow rate of 300 µL min^−1 and held for 1 min. The sample was then eluted from the column with a linear gradient of 5–40% Solvent B (1% acetic acid in acetonitrile) at the same flow rate for 5 min. This was followed by a 1 min ramp up to 100% Solvent B, where it was re‐equilibrated with Solvent A (1% acetic acid) to 5% solvent B over the course of 1 min and held there for 2 min. The column temperature was kept at a constant 29 °C, and the mass spectrometer was operated in positive ion mode. Using a Heated ESI, the Source Voltage was set to 4.1 kV, and the capillary temperature was 350 °C. For non‐library degradation studies, 2.5 µL of 10 mM peptide stock solution for each peptide was added.
(§3) To assess the activity of the conditioned media, the media were divided into two equal portions. One portion was used for a standard degradation study, while the other was cultured for an additional 24 h before the PanMMP and KLVADLMASAE were added. After 24 h of incubation, the media were collected for further analysis. To assess the impact of recombinant MMP‐14 on PanMMP and KLVADLMASAE, recombinant MMP‐14 (antibodies.com) was dissolved in the media at a concentration of 0.5 nM. The remaining steps followed the standard degradation study protocol. […]

[2] = as above; settings: human; for remaining at 24 h: hMSC-conditioned media without cells (Media condition), Figure 3B heatmap, split-and-pool libraries KLVADX1X2ASAE in hMSC-conditioned media without cells, LC-MS, ratio to βFβA6, N = 2, read-out: Fraction of peptide remaining after 24 hours: hMSC Media
Experimental: as §1, §2, §3

[3] = system: hUVECs; test: Soluble peptide degradation, Cells condition (LC-MS); settings: Figure 3B heatmap; split-and-pool libraries KLVADX1X2ASAE in media on hUVECs; 24 h; LC-MS, ratio to βFβA6; N = 2
Experimental: as §1, §2
(§4) In the MMP‐14 inhibitor study, the MMP‐14 inhibitor NSC 405 020 (Cayman Chemical Company) was dissolved in DMSO to make a 10 mM stock solution and stored in −20 °C freezer. 0.5 µL MMP‐14 inhibitor stock solution was added to each well to achieve a 10 µM final concentration.
(§5) For all degradation studies using soluble peptides, a non‐proteolytically degradable NH2‐βFβAβAβAβAβAβA‐amide (βFβA6) peptide, where βF is β‐phenylalanine and βA is β‐alanine, was added at a 50 µM concentration and used as an internal standard. Peptide degradation ratios were measured by LC‐MS and analyzed by Xcalibur. […]

[4] = as above; settings: human
Experimental: as §1, §2, §4, §5

[5] = system: MMP-14; test: as above; settings: human, cells or culture medium
Experimental: as §1, §2, §4, §5

[6] = hMSCs in culture with fresh media (Cells condition), Figure 3B heatmap, split-and-pool libraries KLVADX1X2ASAE (19 or 38 peptides per library) in media on hMSCs, 24 h, LC-MS, ratio to βFβA6, N = 2, read-out: Fraction of peptide remaining after 24 hours: hMSC Cells
[7] = hUVECs in culture with fresh media (Cells condition), Figure 3B heatmap, split-and-pool libraries KLVADX1X2ASAE in media on hUVECs, 24 h, LC-MS, ratio to βFβA6, N = 2, read-out: Fraction of peptide remaining after 24 hours: hUVEC Cells

remaining at 24 h [1] [%]	remaining at 24 h [2] [%]	Fraction of peptide remaining after 24 hours: hUVEC Cells [3]	remaining at 24 h [4, 6] [%]	remaining at 24 h, 50 µM ([2]; cells or culture medium) [%]	remaining at 24 h, 50 µM [5] [%]	remaining at 24 h, 50 µM ([5]; Fraction of peptide remaining after 24 hours: hMSC +Inhibitor) [%]	remaining at 24 h ([4]; cells or culture medium) [%]	remaining at 24 h ([4]; cells or culture medium, Fraction of peptide remaining after 24 hours: hMSC Cells) [%]	remaining at 24 h [4, 7] [%]	Compound
94	66	–	38	–	–	–	–	–	81	CC(=O)NCCC(=O)N[C@@H](CCCCN)C(=O)N[C@@H](CC(C)C)C(=O)N[C@H](C(=O)N[C@@H](C)C(=O)N[C@@H](CC(=O)O)C(=O)N1CCC[C@H]1C(=O)N[C@@H](Cc1c[nH]c2ccccc12)C(=O)N[C@@H](C)C(=O)N[C@@H](CO)C(=O)N[C@@H](C)C(=O)N[C@@H](CCC(=O)O)C(=O)NCCC(N)=O)C(C)C [Pro-Trp] (Ac-[βAla]KLVADPWASAE[βAla]-NH2)
94	71	–	48	–	–	–	–	–	84	CC(=O)NCCC(=O)N[C@@H](CCCCN)C(=O)N[C@@H](CC(C)C)C(=O)N[C@H](C(=O)N[C@@H](C)C(=O)N[C@@H](CC(=O)O)C(=O)N[C@@H](CO)C(=O)N[C@@H](CC(=O)O)C(=O)N[C@@H](C)C(=O)N[C@@H](CO)C(=O)N[C@@H](C)C(=O)N[C@@H](CCC(=O)O)C(=O)NCCC(N)=O)C(C)C [Ser-Asp] (Ac-[βAla]KLVADSDASAE[βAla]-NH2)
95	72	–	40	–	–	–	–	–	86	CC(=O)NCCC(=O)N[C@@H](CCCCN)C(=O)N[C@@H](CC(C)C)C(=O)N[C@H](C(=O)N[C@@H](C)C(=O)N[C@@H](CC(=O)O)C(=O)N[C@@H](CO)C(=O)N[C@@H](Cc1c[nH]c2ccccc12)C(=O)N[C@@H](C)C(=O)N[C@@H](CO)C(=O)N[C@@H](C)C(=O)N[C@@H](CCC(=O)O)C(=O)NCCC(N)=O)C(C)C [Ser-Trp] (Ac-[βAla]KLVADSWASAE[βAla]-NH2)
96	65	–	35	–	–	–	–	–	89	CC(=O)NCCC(=O)N[C@@H](CCCCN)C(=O)N[C@@H](CC(C)C)C(=O)N[C@H](C(=O)N[C@@H](C)C(=O)N[C@@H](CC(=O)O)C(=O)N[C@@H](Cc1ccc(O)cc1)C(=O)N1CCC[C@H]1C(=O)N[C@@H](C)C(=O)N[C@@H](CO)C(=O)N[C@@H](C)C(=O)N[C@@H](CCC(=O)O)C(=O)NCCC(N)=O)C(C)C [Tyr-Pro] (Ac-[βAla]KLVADYPASAE[βAla]-NH2)

More lines, now with the values behind:

Compound	remaining at 24 h [1] [%]	remaining at 24 h [2] [%]	Fraction of peptide remaining after 24 hours: hUVEC Cells [3]	remaining at 24 h [4, 6] [%]	remaining at 24 h, 50 µM ([2]; cells or culture medium) [%]	remaining at 24 h, 50 µM [5] [%]	remaining at 24 h, 50 µM ([5]; Fraction of peptide remaining after 24 hours: hMSC +Inhibitor) [%]	remaining at 24 h ([4]; cells or culture medium) [%]	remaining at 24 h ([4]; cells or culture medium, Fraction of peptide remaining after 24 hours: hMSC Cells) [%]	remaining at 24 h [4, 7] [%]
CC(=O)NCCC(=O)N[C@@H](CCCCN)C(=O)N[C@@H](CC(C)C)C(=O)N[C@H](C(=O)N[C@@H](C)C(=O)N[C@@H](CC(=O)O)C(=O)N[C@@H](CCC(=O)O)C(=O)N1CCC[C@H]1C(=O)N[C@@H](C)C(=O)N[C@@H](CO)C(=O)N[C@@H](C)C(=O)N[C@@H](CCC(=O)O)C(=O)NCCC(N)=O)C(C)C [Glu-Pro] (Ac-[βAla]KLVADEPASAE[βAla]-NH2)	96	79	0.89	49	–	–	–	–	–	–
CC(=O)NCCC(=O)N[C@@H](CCCCN)C(=O)N[C@@H](CC(C)C)C(=O)N[C@H](C(=O)N[C@@H](C)C(=O)N[C@@H](CC(=O)O)C(=O)N1CCC[C@H]1C(=O)N[C@@H](CC(C)C)C(=O)N[C@@H](C)C(=O)N[C@@H](CO)C(=O)N[C@@H](C)C(=O)N[C@@H](CCC(=O)O)C(=O)NCCC(N)=O)C(C)C [KLVAD-PL] (Ac-[βAla]KLVADPLASAE[βAla]-NH2)	–	–	–	–	91	99	94	83	51	–
CC(=O)NCCC(=O)N[C@@H](CCCCN)C(=O)N[C@@H](CC(C)C)C(=O)N[C@H](C(=O)N[C@@H](C)C(=O)N[C@@H](CC(=O)O)C(=O)N1CCC[C@H]1C(=O)N[C@@H](Cc1ccccc1)C(=O)N[C@@H](C)C(=O)N[C@@H](CO)C(=O)N[C@@H](C)C(=O)N[C@@H](CCC(=O)O)C(=O)NCCC(N)=O)C(C)C [Pro-Phe] (Ac-[βAla]KLVADPFASAE[βAla]-NH2)	97	73	–	41	–	–	–	–	–	84
CC(=O)NCCC(=O)N[C@@H](CCCCN)C(=O)N[C@@H](CC(C)C)C(=O)N[C@H](C(=O)N[C@@H](C)C(=O)N[C@@H](CC(=O)O)C(=O)N1CCC[C@H]1C(=O)N[C@H](C(=O)N[C@@H](C)C(=O)N[C@@H](CO)C(=O)N[C@@H](C)C(=O)N[C@@H](CCC(=O)O)C(=O)NCCC(N)=O)C(C)C)C(C)C [Pro-Val] (Ac-[βAla]KLVADPVASAE[βAla]-NH2)	100	84	–	51	–	–	–	–	–	92
CC[C@H](C)[C@H](NC(=O)[C@H](Cc1ccc(O)cc1)NC(=O)[C@H](CC(=O)O)NC(=O)[C@H](C)NC(=O)[C@@H](NC(=O)[C@H](CC(C)C)NC(=O)[C@H](CCCCN)NC(=O)CCNC(C)=O)C(C)C)C(=O)N[C@@H](C)C(=O)N[C@@H](CO)C(=O)N[C@@H](C)C(=O)N[C@@H](CCC(=O)O)C(=O)NCCC(N)=O [Tyr-Ile] (Ac-[βAla]KLVADYIASAE[βAla]-NH2)	92	76	–	43	–	–	–	–	–	86
